Molecules are shown by their SMILES. In brackets after ≈: the same amount, converted by molar mass. Activity calls are given as the source filed them.

The values that follow come from ChEMBL document CHEMBL5512659, “Structure optimizing of flavonoids against both MRSA and VRE” (Eur J Med Chem, 2024).

One assay has as its system Enterococcus faecalis. In words: Bactericidal activity against multidrug resistant Enterococcus faecalis ATCC 51299 assessed as inhibition of bacterial growth by measuring ratio of MBC to MIC. The class given is functional.
Details: not given
As to `CCCCCCc1c(-c2ccc(OCC(=O)CN[C@H](CCCNC(=N)N)C(=O)OC)cc2OCC(=O)CN[C@H](CCCNC(=N)N)C(=O)OC)oc2cc(OC)cc(O)c2c1=O`, the Ratio is reported as less than 4.

The next assay concerns Enterococcus faecalis. In words: Antibacterial activity in multidrug resistant Enterococcus faecalis ATCC 51299 at sub-MIC measured after 20 passages. The class given is functional, organism-based.
Details: not given
Take `CCCCCCc1c(-c2ccc(OCC(=O)CN[C@H](CCCNC(=N)N)C(=O)OC)cc2OCC(=O)CN[C@H](CCCNC(=N)N)C(=O)OC)oc2cc(OC)cc(O)c2c1=O`: the result was Active.

A further assay concerns Cell membrane. In words: Induction of cell membrane damage in methicillin resistant Staphylococcus aureus clinical isolate 003 assessed as increase in green fluorescence at 2 to 4 times MIC by SYTOX Green dye based analysis. The class given is cell membranes.
Details: not given
For `CCCCCCc1c(-c2ccc(OCC(=O)CN[C@H](CCCNC(=N)N)C(=O)OC)cc2OCC(=O)CN[C@H](CCCNC(=N)N)C(=O)OC)oc2cc(OC)cc(O)c2c1=O`, the outcome was Active.

A further assay has as its system Staphylococcus aureus. In words: Antibacterial activity against methicillin-resistant Staphylococcus aureus clinical isolate 003 at 2 to 4 times MIC measured after 8 to 12 hrs by time-kill assay. Format: functional, organism-based. The settings on record: time 8-12 hrs.
Consider `CCCCCCc1c(-c2ccc(OCC(=O)CN[C@H](CCCNC(=N)N)C(=O)OC)cc2OCC(=O)CN[C@H](CCCNC(=N)N)C(=O)OC)oc2cc(OC)cc(O)c2c1=O`, for which the outcome was Active.

Another assay deals with Cell membrane. In words: Induction of membrane depolarization in multidrug resistant Enterococcus faecalis ATCC 51299 assessed as increase in fluorescence intensity at 2 to 4 times MIC by DiSC3(5) dye based analysis.
Details: not given
With `CCCCCCc1c(-c2ccc(OCC(=O)CN[C@H](CCCNC(=N)N)C(=O)OC)cc2OCC(=O)CN[C@H](CCCNC(=N)N)C(=O)OC)oc2cc(OC)cc(O)c2c1=O`, the Activity result is “Dose-Dependent Effect”.

The test system of the next assay is Staphylococcus aureus. In words: Antibacterial activity against methicillin resistant Staphylococcus aureus clinical isolate 031. The class given is functional.
Details: not given
For `CCCCCCc1c(-c2ccc(OCC(=O)CN[C@H](CCCNC(=N)N)C(=O)OC)cc2OCC(=O)CN[C@H](CCCNC(=N)N)C(=O)OC)oc2cc(OC)cc(O)c2c1=O`, the minimal inhibitory concentration (MIC) stood at 2 µg/mL (≈ 2.3 µM).

The next assay has as its system Cell membrane. In words: Induction of cell membrane damage in multidrug resistant Enterococcus faecalis ATCC 51299 assessed as bacterial death at 2 to 4 times MIC by confocal laser scanning microscopy. The class given is cell membranes.
Details: not given
Consider `CCCCCCc1c(-c2ccc(OCC(=O)CN[C@H](CCCNC(=N)N)C(=O)OC)cc2OCC(=O)CN[C@H](CCCNC(=N)N)C(=O)OC)oc2cc(OC)cc(O)c2c1=O`, for which the outcome was Active.

The next assay has as its system Cell membrane. In words: Induction of membrane depolarization in methicillin resistant Staphylococcus aureus clinical isolate 003 assessed as increase in fluorescence intensity at 2 to 4 times MIC by DiSC3(5) dye based analysis.
Details: not given
As for `CCCCCCc1c(-c2ccc(OCC(=O)CN[C@H](CCCNC(=N)N)C(=O)OC)cc2OCC(=O)CN[C@H](CCCNC(=N)N)C(=O)OC)oc2cc(OC)cc(O)c2c1=O`, the Activity entry is “Dose-Dependent Effect”.

The next assay concerns Staphylococcus aureus. In words: Antibiofilm activity in methicillin resistant Staphylococcus aureus clinical isolate 003 assessed as inhibition of biofilm formation at 4 times MIC by crystal violet staining based analysis relative to control. Format: functional.
Details: not given
As for `CCCCCCc1c(-c2ccc(OCC(=O)CN[C@H](CCCNC(=N)N)C(=O)OC)cc2OCC(=O)CN[C@H](CCCNC(=N)N)C(=O)OC)oc2cc(OC)cc(O)c2c1=O`, the “inhibition (INH)” value is greater than 90%.

In a further assay the test system is Cell membrane. In words: Disruption of membrane permeability in methicillin resistant Staphylococcus aureus clinical isolate 003 assessed as increase in malondialdehyde level.
Details: not given
Turning to `CCCCCCc1c(-c2ccc(OCC(=O)CN[C@H](CCCNC(=N)N)C(=O)OC)cc2OCC(=O)CN[C@H](CCCNC(=N)N)C(=O)OC)oc2cc(OC)cc(O)c2c1=O`, the result was Active.

A further assay concerns Staphylococcus aureus. In words: Antibacterial activity against Staphylococcus aureus clinical isolate 31. The class given is functional.
Details: not given
As to `CCCCCCc1c(-c2ccc(OCC(=O)CN[C@H](CCCNC(=N)N)C(=O)OC)cc2OCC(=O)CN[C@H](CCCNC(=N)N)C(=O)OC)oc2cc(OC)cc(O)c2c1=O`, the MIC came out at 1 µg/mL (≈ 1.15 µM).

The test system of another assay is Cell membrane. In words: Disruption of membrane permeability in multidrug resistant Enterococcus faecalis ATCC 51299 assessed as protein leakage at 2 to 4 times MIC. The class given is cell membranes.
Details: not given
In the case of `CCCCCCc1c(-c2ccc(OCC(=O)CN[C@H](CCCNC(=N)N)C(=O)OC)cc2OCC(=O)CN[C@H](CCCNC(=N)N)C(=O)OC)oc2cc(OC)cc(O)c2c1=O`, the result was Active.

In the next assay the test system is Cell membrane. In words: Induction of membrane damage in methicillin resistant Staphylococcus aureus clinical isolate 003 assessed as deformation of bacterial surface at 2 to 4 times MIC by SEM analysis. Format: cell membranes.
Details: not given
With `CCCCCCc1c(-c2ccc(OCC(=O)CN[C@H](CCCNC(=N)N)C(=O)OC)cc2OCC(=O)CN[C@H](CCCNC(=N)N)C(=O)OC)oc2cc(OC)cc(O)c2c1=O`, the outcome was Active.

A further assay has as its system Enterococcus faecalis. In words: Antibiofilm activity in multidrug resistant Enterococcus faecalis ATCC 51299 assessed as reduction in biofilm density at 0.5 to 4 times MIC measured after 24 hrs by inverted fluorescence microscopic analysis. Format: functional, organism-based.
Details: not given
On to `CCCCCCc1c(-c2ccc(OCC(=O)CN[C@H](CCCNC(=N)N)C(=O)OC)cc2OCC(=O)CN[C@H](CCCNC(=N)N)C(=O)OC)oc2cc(OC)cc(O)c2c1=O`, for which the Activity entry is “Dose-Dependent Effect”.

Another assay deals with Enterococcus faecalis. In words: Antibiofilm activity in multidrug resistant Enterococcus faecalis ATCC 51299 assessed as destruction of biofilm integrity at 0.5 to 4 times MIC measured after 24 hrs by inverted fluorescence microscopic analysis. Format: functional, organism-based.
Details: not given
`CCCCCCc1c(-c2ccc(OCC(=O)CN[C@H](CCCNC(=N)N)C(=O)OC)cc2OCC(=O)CN[C@H](CCCNC(=N)N)C(=O)OC)oc2cc(OC)cc(O)c2c1=O`: the Activity result is “Dose-Dependent Effect”.

Another assay relates to Staphylococcus aureus. In words: Antibiofilm activity in methicillin resistant Staphylococcus aureus clinical isolate 003 assessed as biofilm clearance rate at 4 times MIC by crystal violet staining based analysis relative to control. The class given is functional.
Details: not given
In the case of `CCCCCCc1c(-c2ccc(OCC(=O)CN[C@H](CCCNC(=N)N)C(=O)OC)cc2OCC(=O)CN[C@H](CCCNC(=N)N)C(=O)OC)oc2cc(OC)cc(O)c2c1=O`, the Activity is roughly 80%.

The next assay concerns Staphylococcus aureus. In words: Antibiofilm activity in methicillin resistant Staphylococcus aureus clinical isolate 003 assessed as biofilm clearance at 0.5 to 4 times MIC by crystal violet staining based analysis.
Details: not given
Format: functional, organism-based.
With `CCCCCCc1c(-c2ccc(OCC(=O)CN[C@H](CCCNC(=N)N)C(=O)OC)cc2OCC(=O)CN[C@H](CCCNC(=N)N)C(=O)OC)oc2cc(OC)cc(O)c2c1=O`, the Activity result is “Dose-Dependent Effect”.

The subject of a further assay is Staphylococcus aureus. In words: Antibiofilm activity in methicillin resistant Staphylococcus aureus clinical isolate 003 assessed as reduction in biofilm density at 0.5 to 4 times MIC measured after 24 hrs by inverted fluorescence microscopic analysis. The class given is functional, organism-based.
Details: not given
Consider `CCCCCCc1c(-c2ccc(OCC(=O)CN[C@H](CCCNC(=N)N)C(=O)OC)cc2OCC(=O)CN[C@H](CCCNC(=N)N)C(=O)OC)oc2cc(OC)cc(O)c2c1=O`, for which the Activity result is “Dose-Dependent Effect”.

Another assay has as its system Cell membrane. In words: Disruption of membrane permeability in methicillin resistant Staphylococcus aureus clinical isolate 003 assessed as protein leakage at 2 to 4 times MIC.
Details: not given
For `CCCCCCc1c(-c2ccc(OCC(=O)CN[C@H](CCCNC(=N)N)C(=O)OC)cc2OCC(=O)CN[C@H](CCCNC(=N)N)C(=O)OC)oc2cc(OC)cc(O)c2c1=O`, the outcome was Active.

In another assay the test system is Cell membrane. In words: Induction of cell membrane damage in methicillin resistant Staphylococcus aureus clinical isolate 003 assessed as bacterial death at 2 to 4 times MIC by confocal laser scanning microscopy. The class given is cell membranes.
Details: not given
As to `CCCCCCc1c(-c2ccc(OCC(=O)CN[C@H](CCCNC(=N)N)C(=O)OC)cc2OCC(=O)CN[C@H](CCCNC(=N)N)C(=O)OC)oc2cc(OC)cc(O)c2c1=O`, the outcome was Active.

A further assay has as its system Staphylococcus aureus. In words: Antibacterial activity against methicillin resistant Staphylococcus aureus clinical isolate 003 in presence of phosphatidylglycerol.
Details: not given
The class given is functional, organism-based.
Turning to `CCCCCCc1c(-c2ccc(OCC(=O)CN[C@H](CCCNC(=N)N)C(=O)OC)cc2OCC(=O)CN[C@H](CCCNC(=N)N)C(=O)OC)oc2cc(OC)cc(O)c2c1=O`, the result was inactive.

Another assay relates to Staphylococcus aureus. In words: Antibacterial activity against methicillin resistant Staphylococcus aureus clinical isolate 003 in presence of peptidoglycan. The class given is functional, organism-based.
Details: not given
As to `CCCCCCc1c(-c2ccc(OCC(=O)CN[C@H](CCCNC(=N)N)C(=O)OC)cc2OCC(=O)CN[C@H](CCCNC(=N)N)C(=O)OC)oc2cc(OC)cc(O)c2c1=O`, the outcome was Active.

As a reminder, the MIC is the smallest concentration in the dilution series that meets the test's criterion for growth inhibition. A high value points to a need for much substance.
